Reference: BindingDB's records for doi:10.1038/sj.bjp.0702293 (Monash University, 1999)

Key:
[1] = target: 5-hydroxytryptamine receptor 7 (Cavia porcellus, UniProt P50407)
[2] = target: 5-hydroxytryptamine receptor 7 (Rattus norvegicus, UniProt P32305)
Sequence of 5-hydroxytryptamine receptor 7 (Rattus norvegicus, UniProt P32305) (P32305 whole entry): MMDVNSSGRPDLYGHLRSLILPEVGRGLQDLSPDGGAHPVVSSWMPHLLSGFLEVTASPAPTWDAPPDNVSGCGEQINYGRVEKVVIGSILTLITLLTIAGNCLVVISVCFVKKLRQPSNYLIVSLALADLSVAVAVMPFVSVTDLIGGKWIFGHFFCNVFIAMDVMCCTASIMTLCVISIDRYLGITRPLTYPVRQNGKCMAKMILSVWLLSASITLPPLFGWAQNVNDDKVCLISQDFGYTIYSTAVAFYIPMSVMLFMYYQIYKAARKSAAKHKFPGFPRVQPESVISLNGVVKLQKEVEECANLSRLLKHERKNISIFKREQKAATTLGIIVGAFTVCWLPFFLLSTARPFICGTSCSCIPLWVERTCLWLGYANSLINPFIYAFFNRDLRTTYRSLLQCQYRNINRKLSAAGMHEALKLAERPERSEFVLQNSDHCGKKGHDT

Sequence of 5-hydroxytryptamine receptor 7 (Cavia porcellus, UniProt P50407) (P50407 whole entry): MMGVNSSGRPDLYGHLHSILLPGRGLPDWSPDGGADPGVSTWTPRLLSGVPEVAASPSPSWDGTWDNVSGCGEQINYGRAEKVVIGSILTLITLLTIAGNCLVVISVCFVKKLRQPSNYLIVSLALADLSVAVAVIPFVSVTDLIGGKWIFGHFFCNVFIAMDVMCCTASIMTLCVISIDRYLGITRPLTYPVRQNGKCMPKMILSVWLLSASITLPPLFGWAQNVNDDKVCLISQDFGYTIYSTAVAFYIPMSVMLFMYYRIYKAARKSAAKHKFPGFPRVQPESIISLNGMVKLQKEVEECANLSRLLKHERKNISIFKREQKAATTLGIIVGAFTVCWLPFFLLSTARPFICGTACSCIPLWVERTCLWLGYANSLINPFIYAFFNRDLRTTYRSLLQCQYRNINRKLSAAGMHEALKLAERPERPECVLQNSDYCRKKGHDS

Compound	Ki [1] [nM]	Ki [2] [nM]
CCN(CC)C(=O)[C@@H]1C=C2c3cccc4[nH]cc(c34)C[C@H]2N(C)C1 [(4R,7R)-N,N-diethyl-6-methyl-6,11-diazatetracyclo[7.6.1.0^{2,7}.0^{12,16}]hexadeca-1(16),2,9,12,14-pentaene-4-carboxamide]	0.4	
Cc1nc2n(c(=O)c1CCN1CCC(c3noc4cc(F)ccc34)CC1)CCCC2 [3-{2-[4-(6-Fluoro-benzo[d]isoxazol-3-yl)-piperidin-1-yl]-ethyl}-2-methyl-6,7,8,9-tetrahydro-pyrido[1,2-a]pyrimidin-4-one(risperidone)]	0.4	
CNS(=O)(=O)Cc1ccc2[nH]cc(CCN(C)C)c2c1 [Sumax]	100	25.1
NCCc1c[nH]c2ccc(O)cc12 [[3H]-5-HT]	0.1	
CC(C)NCC(O)COc1cccc2[nH]ccc12 (centres undefined) [LB-46]	501	> 10000
CN1C[C@H](CNC(=O)OCc2ccccc2)C[C@@H]2c3cccc4c3c(cn4C)C[C@H]21 [METERGOLINE]	1.58	10
COc1ccc2[nH]cc(CCN)c2c1 [tryptamine, 5-Methoxy]	0.25	
CN1C[C@@H](NS(=O)(=O)N(C)C)C[C@@H]2c3cccc4c3c(cn4C)C[C@H]21 [MESULERGINE]	12.6	10
Cc1nc2sccn2c(=O)c1CCN1CCC(=C(c2ccc(F)cc2)c2ccc(F)cc2)CC1	5.01	25.1
